Data reported in patent US9012471B2, “Glucose metabolism modulating compounds” (The Trustees of Columbia University in the City of New York, priority 2008, dated 2015).
Values belong to the molecule of their own block, whether it stands above or below them.

Assays:
[1] = rats; cited from earlier work
[2] = tested on: STZ treated rats; assay: IPGTT and insulin in streptozotocin (STZ) treated rats; type: in vivo, rat; conditions: TBZ 1.5 mg/Kg
Description: (§1) Animals were fully recovered for at least 30 minutes before receiving IPGTT. In specified experiments, L-DOPA was injected interperitoneal (I.P.) at the specified dose at the initiation of IPGTT. Abnormal glucose tolerance was induced by a single I.P. injection of streptozotocin (STZ) (Sigma Aldrich, St. Louis, Mo.) (50 mg/kg) to animals that had been fasted 4 hours to enhance the efficacy of STZ.
STZ solution was prepared fresh by dissolving it in 0.1 M citrate buffer (pH 5.5) and terminally sterile filtered. Control Lewis age and weight matched rats received a 0.5 ml/kg citrate vehicle alone via intraperitoneal injection. […]
Blood samples were collected between 12:00 noon and 2:00 p.m. from a superficial blood vessel in the tails of the rats following 6 hours of fasting. The fasting blood glucose (BG) levels of the rats were measured using an Accu-Check blood glucose monitoring system (Roche Diagnostics, Sommerville, N.J.). […] Blood glucose concentrations were measured immediately on these samples and the remainder processed. […]
(§2) Insulin and glucagon concentration measurements in rat plasma were performed by ELISA as per the manufacturer's instructions using kits from Linco Research Inc. (St. Charles, Mich.) and Alpco Diagnostics (Salem, N.H.), respectively. […] The area under the insulin, glucagon and IPGTT glucose concentration×time curve (AUC IPGTT) was calculated by the trapezoidal rule.

[3] = tested on: Lewis rats; assay: Dopamine content of brain and pancreas tissue by ELISA after TBZ; type: in vivo, rat; conditions: 1.5 mg/Kg i.v., one hour after injection
Description: Euthanasia was performed by exsanguination of the anesthetized animal. Brain and pancreas were harvested as quickly as possible and frozen at −80° C. until use. […] The tissue extract was centrifuged at 10,000×g at 4° C. to remove debris and the total protein was estimated by reading the absorbance at 280 nm.

[4] = molecular target: VMAT2 (Homo sapiens, UniProt Q05940); conditions: cited from earlier work
[5] = tested on: Lewis rats; assay: Plasma insulin and glucagon during IPGTT; type: in vivo, rat
Description: The fasting blood glucose (BG) levels of the rats were measured using an Accu-Check blood glucose monitoring system (Roche Diagnostics, Sommerville, N.J.). IPGTT was performed in 6-hour fasting anaesthetized animals as previously described ([…], et al. 2001). Briefly, after baseline BG measurements, animals received an I.P. injection of 2 grams of glucose/kg body weight. To minimize stress during the procedure, rats were handled by the same operator during acclimatization and later during weighing and IPGTT. Blood samples (50 μl or 150 μl) were collected at baseline and then again 15, 30, 60, 90, and 120 minutes following I.P. injection of glucose. Blood glucose concentrations were measured immediately on these samples and the remainder processed. Plasma was immediately separated by centrifugation at 3,000×g for 15 minutes and then stored at -80° C. until analysis. Insulin and glucagon concentration measurements in rat plasma were performed by ELISA as per the manufacturer's instructions using kits from Linco Research Inc. (St. Charles, Mich.) and Alpco Diagnostics (Salem, N.H.), respectively. To validate the test, saline injections were performed by the same method. […] The area under the insulin, glucagon and IPGTT glucose concentration×time curve (AUC IPGTT) was calculated by the trapezoidal rule.

[6] = tested on: rats; conditions: cited from earlier work
[7] = molecular target: T1, VMAT1 (Homo sapiens, UniProt P54219); conditions: cited from earlier work
T1 sequence (P54219 1-525): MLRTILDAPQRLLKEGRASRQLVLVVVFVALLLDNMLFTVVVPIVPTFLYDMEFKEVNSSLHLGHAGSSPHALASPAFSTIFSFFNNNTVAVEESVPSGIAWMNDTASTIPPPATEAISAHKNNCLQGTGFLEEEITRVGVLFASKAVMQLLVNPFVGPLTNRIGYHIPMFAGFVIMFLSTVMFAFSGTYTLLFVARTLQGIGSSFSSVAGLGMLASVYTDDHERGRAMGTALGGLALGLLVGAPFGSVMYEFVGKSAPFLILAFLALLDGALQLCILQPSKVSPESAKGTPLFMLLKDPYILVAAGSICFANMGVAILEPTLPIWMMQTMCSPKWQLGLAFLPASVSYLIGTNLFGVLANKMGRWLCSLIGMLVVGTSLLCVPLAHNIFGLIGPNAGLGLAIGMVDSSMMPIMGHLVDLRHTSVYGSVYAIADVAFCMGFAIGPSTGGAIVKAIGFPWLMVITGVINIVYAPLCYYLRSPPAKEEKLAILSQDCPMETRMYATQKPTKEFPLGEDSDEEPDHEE

[8] = tested on: Lewis rats; assay: Intraperitoneal glucose tolerance test (IPGTT), blood glucose; type: in vivo, rat; conditions: for decrease of AUC IPGTT: 2 mg/kg i.v. 30 minutes before glucose 2 g/kg I.P.; for hypoglycemic activity in IPGTT (improvement of glucose tolerance): 2 mg/kg i.v., Lewis rats
Description: Rats were handled daily to minimize nonspecific stress for more than 7 days before the experiments began. In most experiments, it was necessary to measure blood glucose in fasting animals. For these groups, food was removed at the beginning of the light cycle, 6 hours before glucose levels were tested.
Sixty minutes prior to intraperitoneal glucose tolerance testing (IPGTT), anesthesia of male Lewis rats was induced with isoflurane (3-4% in oxygen) and maintained with 1-2% isoflurane in oxygen.
Anaesthetized rats were administered TBZ at the indicated dose by intravenous (i.v.) injection using the penile vein. […] Control rats received injections of vehicle alone (10% DMSO in Saline).
as §1
Blood samples were collected between 12:00 noon and 2:00 p.m. from a superficial blood vessel in the tails of the rats following 6 hours of fasting. The fasting blood glucose (BG) levels of the rats were measured using an Accu-Check blood glucose monitoring system (Roche Diagnostics, Sommerville, N.J.). IPGTT was performed in 6-hour fasting anaesthetized animals as previously described (Weksler-Zangen, et al. 2001). Briefly, after baseline BG measurements, animals received an I.P. injection of 2 grams of glucose/kg body weight. To minimize stress during the procedure, rats were handled by the same operator during acclimatization and later during weighing and IPGTT. Blood samples (50 μl or 150 μl) were collected at baseline and then again 15, 30, 60, 90, and 120 minutes following I.P. injection of glucose. Blood glucose concentrations were measured immediately on these samples and the remainder processed. Plasma was immediately separated by centrifugation at 3,000×g for 15 minutes and then stored at −80° C. until analysis.
as §2, with “respectively. To validate the test, saline injections were performed by the same method.” for “respectively.”

[9] = molecular target: T2, VMAT2 (Rattus norvegicus, UniProt Q01827); assay: Fake Fluorescent Neurotransmitter (FFN) uptake high throughput assay in INS 832/13 cells; type: cell-based; conditions: for block of FFN uptake/transport: one hour preincubation
T2 construct: endogenous in cells; host or cells: rat INS 832/13 insulinoma cells
Description: A high throughput (HTP) assay was developed to screen for compounds that interact with, e.g., bind to, VMAT2. The HTP exploits a class of compounds called Fake Fluorescent Neurotransmitters (FFN) that share the following characteristics a) low molecular weight and sufficiently hydrophilic to be water soluble; b) in aqueous buffer (pH 7), the excitation maxima is around 380-406 nm and the emission maxima is around 501 nm; and c) similar Kd for VMAT2 as dopamine. To validate the use of these compounds in beta cell lines (positive for VMAT2) the following set of experiments were performed.
The rat INS 832/13 cell line was selected because it secretes insulin in response to glucose concentrations in the physiological range and can be shown to contain VMAT2 by PCR. […] INS cells were grown on cover slips in normal media, then pretreated with and without DTBZ in low glucose media for one hour and then loaded with FFN (GH206). The distribution of fluorescent dye was then examined under a fluorescent microscope. The FFN distributes itself intracellularly in a punctate pattern similar, if not identical, to insulin containing granules of this cell line (data not shown). […] For better quantitation of the fluorescent signal, the cells were grown in […] and the same experiment substantially repeated. Briefly, cells were grown to confluence in complete high glucose media, then incubated for one hour in low glucose media. DTBZ was then added to the wells for one hour, followed with a second one hour incubation with FFN. Wells were then washed and the fluorescent signal (380 exc, 512 emm) measured in a multiwell fluorometer (Synergy HT Multi-Mode Microplate Reader).

[10] = molecular target: T3, DPP-IV (Homo sapiens, UniProt P27487); assay: DPP profiling service (BPS Bioscience), in vitro; type: biochemical; conditions: concentrations up to 10 μM
T3 construct: purchased BPS Bioscience, Inc. (San Diego, Calif.)
Description: The effect of DTBZ on DDP-IV was determined using the DPP profiling service from BPS Bioscience, Inc. (San Diego, Calif.).

[11] = tested on: purified rat islets; assay: Static glucose stimulated insulin secretion in purified islets; type: cell-based; conditions: 100 nM DTBZ
Description: Rat pancreas digestion, islet isolations, and static insulin secretion assays were performed as previously described (Niswender et al. 2005; Sweet, et al. 2004; Sweet and Gilbert 2006). Purified islets were cultured in RPMI 1640 culture media with 10% fetal bovine serum at 37° C. in humidified air (5% CO2) for 18 to 24 hours. Assessment of insulin secretion in static media was carried out as follows. Islets were handpicked twice into a Petri dishes containing Krebs-Ringer bicarbonate (KRB) buffer (with 3 mM glucose and 0.1% BSA) and pre-incubated for 60 minutes (37° C. and 5% CO2). Subsequently, batches of 100 islets (in quadruplicate) were transferred into 96-well plates containing 200 μl of KRB with either 3 or 20 mM glucose, with or without 100 nM DTBZ and incubated for 60 minutes. The supernatant was removed and the insulin was measured using ELISA (ALPCO, Windham, N.H.).

[12] = molecular target: T2, VMAT2; assay: PET displacement of [11C]DTBZ in pancreas; type: in vivo; conditions: cold compound 2 mg/kg, 30 minutes after radioligand
Description: PET scans were performed on 12-14-week-old Lewis male rats. Prior to imaging, the animals were anesthetized by isoflurane inhalation. After a transmission scan of the area of interest had been acquired (used to perform attenuation correction of the emission data), the radioligand [^11C]DTBZ was administered (0.5-1.0 μCi/gm) in saline as a bolus injection via the penile vein. PET scans of the animals were acquired dynamically to 90 minutes post-injection on a Concorde microPET-R4 (CTI Molecular Imaging (Knoxville, Tenn.)). The scanner provided a 100×80 mm field of view with a reconstructed resolution of 2.25 mm in the central 40 mm of the field of view.
At thirty minutes post injection of [^11C]DTBZ, animals received a second injection via the penile vein of cold analog. PET data were processed using an attenuation correction matrix obtained by transmission scans and images were reconstructed using Fourier rebinning, followed by two-dimensional, filtered back projection using microPET manager software (CTI Molecular Imaging (Knoxville, Tenn.)).
To test whether the strong hypoglycemic effect of compound 8 is conferred by binding to VMAT2 in beta cells, a PET study in rats was performed. The animals were treated with radiolabeled DTBZ, and the uptake of [^11C]DTBZ in pancreas was monitored by PET scan in the presence of an excess of compound 8.

T2 sequence (Q01827 whole entry): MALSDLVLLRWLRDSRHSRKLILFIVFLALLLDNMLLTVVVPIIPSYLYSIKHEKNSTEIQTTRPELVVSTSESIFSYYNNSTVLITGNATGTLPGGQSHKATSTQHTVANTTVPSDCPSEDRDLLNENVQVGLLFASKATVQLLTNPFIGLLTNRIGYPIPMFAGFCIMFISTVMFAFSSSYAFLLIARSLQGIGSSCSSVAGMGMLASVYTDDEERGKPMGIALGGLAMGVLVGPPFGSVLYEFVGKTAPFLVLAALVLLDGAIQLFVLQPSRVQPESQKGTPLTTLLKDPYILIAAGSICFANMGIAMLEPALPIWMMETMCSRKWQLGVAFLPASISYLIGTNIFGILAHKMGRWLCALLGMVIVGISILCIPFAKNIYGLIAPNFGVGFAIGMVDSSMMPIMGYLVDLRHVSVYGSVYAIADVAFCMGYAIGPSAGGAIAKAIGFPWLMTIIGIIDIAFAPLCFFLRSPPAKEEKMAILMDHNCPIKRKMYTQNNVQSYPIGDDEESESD
T3 sequence (P27487 whole entry, species assumed): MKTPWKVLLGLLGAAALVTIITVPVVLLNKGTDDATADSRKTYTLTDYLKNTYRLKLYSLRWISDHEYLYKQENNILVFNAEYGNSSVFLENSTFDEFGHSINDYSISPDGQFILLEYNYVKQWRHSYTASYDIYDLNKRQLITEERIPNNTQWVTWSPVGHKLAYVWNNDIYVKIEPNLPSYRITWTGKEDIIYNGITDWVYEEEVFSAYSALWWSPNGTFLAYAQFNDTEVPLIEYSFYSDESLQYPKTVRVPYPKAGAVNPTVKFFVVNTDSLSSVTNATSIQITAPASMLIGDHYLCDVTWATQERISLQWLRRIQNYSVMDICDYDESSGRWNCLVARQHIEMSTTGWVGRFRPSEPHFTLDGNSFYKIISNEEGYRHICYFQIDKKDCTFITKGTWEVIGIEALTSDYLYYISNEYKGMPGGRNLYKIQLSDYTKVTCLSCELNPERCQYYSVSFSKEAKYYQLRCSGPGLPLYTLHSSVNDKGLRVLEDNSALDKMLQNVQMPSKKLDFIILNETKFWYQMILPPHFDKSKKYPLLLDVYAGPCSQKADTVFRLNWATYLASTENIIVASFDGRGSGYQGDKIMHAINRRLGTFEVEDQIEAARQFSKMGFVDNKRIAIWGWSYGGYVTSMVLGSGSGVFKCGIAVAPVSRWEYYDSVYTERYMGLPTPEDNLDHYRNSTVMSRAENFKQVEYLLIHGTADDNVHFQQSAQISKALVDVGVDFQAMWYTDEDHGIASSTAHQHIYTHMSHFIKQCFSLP
VMAT2 (Homo sapiens, UniProt Q05940), sequence (Q05940 whole entry): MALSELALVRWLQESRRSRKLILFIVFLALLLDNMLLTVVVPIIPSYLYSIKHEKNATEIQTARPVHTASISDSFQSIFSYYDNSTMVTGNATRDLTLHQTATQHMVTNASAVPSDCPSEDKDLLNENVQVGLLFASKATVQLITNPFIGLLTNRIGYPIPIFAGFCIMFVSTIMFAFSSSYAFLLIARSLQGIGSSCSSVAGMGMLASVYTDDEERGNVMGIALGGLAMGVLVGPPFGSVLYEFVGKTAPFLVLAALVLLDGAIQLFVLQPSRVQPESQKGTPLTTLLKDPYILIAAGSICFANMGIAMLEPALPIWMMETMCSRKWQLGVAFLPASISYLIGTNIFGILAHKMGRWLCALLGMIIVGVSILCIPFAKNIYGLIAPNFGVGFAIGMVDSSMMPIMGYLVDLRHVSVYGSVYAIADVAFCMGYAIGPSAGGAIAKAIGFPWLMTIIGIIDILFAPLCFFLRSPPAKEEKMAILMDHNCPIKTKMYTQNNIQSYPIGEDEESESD

Structure (SMILES): COc1cc2c(cc1OC)C1CC(=O)C(CC(C)C)CN1CC2 (stereo not drawn) [TBZ, tetrabenazine]
plasma elimination half life, t1/2 [1]: 2 h | AUC IPGTT ([2]; STZ treated rats): decreased | increase of AUC insulin ([2]; STZ treated rats which maintained glucose dependant insulin secretion): 50%-80% | dopamine content of brain [3]: significantly reduced | dissociation constant [4]: nanomolar range | AUC plasma glucagon ([5]; i.v. TBZ and glucose challenge): lower relative to controls | reduction of dopamine levels in the brain [6]: 40% | reduction of norepinephrine levels in the brain [6]: 41% | reduction of serotonin levels in the brain [6]: 44% | reduced affinity towards VMAT1 versus VMAT2 [7]: more than 10,000 fold | reduction of glucose excursion (AUC IPGTT) ([8]; 2.25 μg/gm body weight i.v., older male Lewis rats >11 weeks): approximately 35% | decrease of AUC IPGTT [8]: 26% | baseline fasting glucose concentration versus control animals ([8]; about 1 hour after TBZ, before glucose challenge): no reproducible differences | AUC IPGTT ([8]; chronic administration, approximately 0.1 mg/Kg body weight for five days): suppressed the AUC IPGTT in a fashion similar to the single high dose | AUC IPGTT ([8]; doses higher than 5.0 mg/Kg): increasingly variable, often surpassing that of control levels | glucose tolerance enhancing effect (AUC IPGTT) ([8]; doses lower than 0.3 mg/Kg): undetectable

Structure (SMILES): COc1ccc(C2CC(O)C(CC(C)C)CN2)cc1OC (racemic) [compound 1]
hypoglycemic activity in IPGTT (improvement of glucose tolerance) [8]: less potent than TBZ

Structure (SMILES): COc1cc2c(cc1OC)[C@H]1C[C@@H](O)[C@H](CC(C)C)CN1CC2 [DTBZ, dihydrotetrabenazine]
block of FFN uptake/transport [9]: able to block uptake of FFN | effect on DPP-IV [10]: no effect | enhancement of glucose stimulated insulin secretion ([11]; high glucose (20 mM), 60 minutes): two to three fold | increase in insulin secretion ([11]; low glucose (3 mM)): not statistically significant

activity on a per mole basis in blocking FFN transport [9]: less than that of DTBZ | effect on DPP-IV [10]: negative | binding to VMAT2, displacement of [11C]DTBZ in the endocrine pancreas, relative to DTBZ [12]: at least a weak binding
Structure (SMILES): COc1ccc(C2CC(OCC(C)C)=CC(=O)N2)cc1OC (stereo not drawn) [compound 8]
block of FFN uptake/transport [9]: able to block FFN transport into INS vesicles | decrease of AUC IPGTT [8]: 45% | hypoglycemic activity in IPGTT (improvement of glucose tolerance) [8]: potent hypoglycemic effect

Structure (SMILES): N[C@@H](Cc1ccc(O)c(O)c1)C(=O)O [L-DOPA, L-3,4-dihydroxyphenylalanine]
effect on TBZ-lowered AUC IPGTT ([8]; L-DOPA 6.0 mg/Kg I.P., one hour after TBZ, concurrent with glucose): reverse the effects of TBZ

Structure (SMILES): COC1=CC(=O)N2CCc3cc(OC)c(OC)cc3C2C1 (stereo not drawn) [compound 15]
hypoglycemic activity in IPGTT (improvement of glucose tolerance) [8]: active but less potent

Structure (SMILES): NCCc1ccc(O)c(O)c1 [dopamine]
effect on insulin enhancement by TBZ ([5]; dopamine i.v. at the same time as glucose): partially blocked the insulin enhancing effects of TBZ
